Source: ChEMBL document CHEMBL2073932, “Induction of human MDR1 gene expression by 2-acetylaminofluorene is mediated by effectors of the phosphoinositide 3-kinase pathway that activate NF-kappaB signaling” (Oncogene, 2002)

Experiments:
[1] = target: T1, ATP-dependent translocase ABCB1 (Homo sapiens, UniProt P08183); assay: TP_TRANSPORTER: RNase protection assay in embryonic 293 cells; assay type: functional, cell-based; settings: hek293
[2] = target: T1, ATP-dependent translocase ABCB1; assay: TP_TRANSPORTER: RNase protection assay in HepG2 cells; assay type: functional, cell-based

T1 sequence (P08183 whole entry): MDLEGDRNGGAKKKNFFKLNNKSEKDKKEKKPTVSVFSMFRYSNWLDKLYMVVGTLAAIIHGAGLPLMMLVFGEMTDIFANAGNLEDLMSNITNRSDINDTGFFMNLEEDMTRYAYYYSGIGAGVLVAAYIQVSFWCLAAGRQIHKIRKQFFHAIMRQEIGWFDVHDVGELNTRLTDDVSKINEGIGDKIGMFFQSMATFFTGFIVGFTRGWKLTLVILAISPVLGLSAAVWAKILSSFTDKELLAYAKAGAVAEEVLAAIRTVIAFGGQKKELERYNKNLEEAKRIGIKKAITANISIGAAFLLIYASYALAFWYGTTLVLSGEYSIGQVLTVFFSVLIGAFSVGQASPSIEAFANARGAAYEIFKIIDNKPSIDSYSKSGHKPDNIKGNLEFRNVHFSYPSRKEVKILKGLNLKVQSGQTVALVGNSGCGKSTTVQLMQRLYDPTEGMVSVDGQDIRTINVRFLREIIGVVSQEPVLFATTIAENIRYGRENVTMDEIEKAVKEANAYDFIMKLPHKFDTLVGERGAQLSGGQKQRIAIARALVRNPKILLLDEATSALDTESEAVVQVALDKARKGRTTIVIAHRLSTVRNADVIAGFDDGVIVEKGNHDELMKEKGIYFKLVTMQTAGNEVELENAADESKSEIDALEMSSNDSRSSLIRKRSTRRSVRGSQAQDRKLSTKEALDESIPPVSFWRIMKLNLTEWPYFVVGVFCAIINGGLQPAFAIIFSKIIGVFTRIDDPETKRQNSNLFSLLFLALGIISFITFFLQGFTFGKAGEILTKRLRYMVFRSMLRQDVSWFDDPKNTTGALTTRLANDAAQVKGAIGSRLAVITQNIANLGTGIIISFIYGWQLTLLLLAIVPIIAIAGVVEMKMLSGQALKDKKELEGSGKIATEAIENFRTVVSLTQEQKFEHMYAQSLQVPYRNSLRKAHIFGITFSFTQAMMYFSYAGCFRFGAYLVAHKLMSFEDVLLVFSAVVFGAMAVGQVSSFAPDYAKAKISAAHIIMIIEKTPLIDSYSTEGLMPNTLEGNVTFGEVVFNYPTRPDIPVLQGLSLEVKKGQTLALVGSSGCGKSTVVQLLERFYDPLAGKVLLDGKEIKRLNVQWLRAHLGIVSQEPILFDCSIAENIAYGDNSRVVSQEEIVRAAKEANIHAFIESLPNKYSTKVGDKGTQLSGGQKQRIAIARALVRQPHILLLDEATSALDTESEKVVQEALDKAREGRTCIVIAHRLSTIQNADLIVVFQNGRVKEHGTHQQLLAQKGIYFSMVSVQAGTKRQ

Q: What does the source list for `CC(=O)Nc1ccc2c(c1)Cc1ccccc1-2` [2-ACETYLAMINOFLUORENE]?
A: Activity [1]: inducer [+]; Activity [2]: inducer [+]
